The record followed here is patent US20220125764A1, “PHARMACEUTICAL COMPOSITION COMPRISING BENZIMIDAZOLE DERIVATIVE COMPOUND” (HK INNO.N CORPORATION, priority 2019, published 2022).

Assay [1] deals with erosive gastroesophageal reflux disease. The assay can be described thus: Double-blinded, randomized, active-controlled maintenance therapy trial in subjects with treated erosive gastroesophageal reflux disease (Example 2). As to conditions: for subjects with erosion observed by upper gastrointestinal endoscopy: test group (tegoprazan 25 mg, at least 17 subjects) and control group (lansoprazole 15 mg) pooled, total 37 subjects; for symptom evaluation: symptoms of heartburn and gastric acid reflux while taking the drug: all the subjects of the group, once a day for four weeks, tegoprazan 25 mg, lansoprazole 15 mg. The class given is in vivo, human. How it is done:
A double-blinded, randomized and active controlled study was designed to identify an effect of 25 mg of tegoprazan on maintenance therapy for gastroesophageal reflux disease.
(2) a person who is diagnosed with erosive gastroesophageal reflux disease (LA grade A-D) through upper gastrointestinal endoscopy within 12 weeks based on random group allocation (visit 2);
(3) a person who is identified as having erosive gastroesophageal reflux disease treated through upper gastrointestinal endoscopy within seven days based on random group allocation (visit 2) (a person who is identified the cure of erosion after administration of a standard dose of therapeutic agents for erosive gastroesophageal reflux disease (PPI, P-CAB, etc.) for 4-8 weeks due to a typical symptom of gastroesophageal reflux disease and erosive gastroesophageal reflux disease);
The clinical trial was performed in a double-blinded, randomized, active-controlled and multi-center clinical trial manner, and the clinical trial may be schematized as shown in FIG. 1.
The subjects were classified using stratified block randomization based on LA grades identified by upper gastrointestinal endoscopy performed within 12 weeks before the random allocation on visit (visit 2). Each group was administered with the drug for 24 weeks.
As identified in the table above, the test group was orally dosed with 25 mg of tegoprazan tablet (Preparation Example 1)/lansoprazole 15 mg placebo (Preparation Example 4), and the control group was orally dosed with 25 mg of tegoprazan placebo (Preparation Example 2)/lansoprazole 15 mg capsule (Preparation Example 3).
The subjects randomly allocated to each group took the prescribed clinical trial drug once a day at a regular time from the first day of prescription. A diary on the trial subjects was kept from the start day of taking the clinical trial drug.
During a visit in 4 weeks (visit 3), 12 weeks (visit 4) and 24 weeks (visit 5) later, subjects paid a visit on an empty stomach without taking the clinical trial drug, then received a scheduled test, then were newly prescribed the same drug, then took it from the very day, then received a test in their visit in 24 weeks (visit 5) later, and then stopped the administration.
In four weeks (visit 3) after administering the clinical trial drug, endoscopy was not performed, but clinical laboratory tests (hematologic test, blood chemistry test, blood coagulation test, urine test, hepatitis test, etc.) and evaluation of symptoms were performed. In 12 weeks (visit 4) and 24 weeks (visit 5) later, it was checked whether erosion recurred or not through the upper gastrointestinal endoscopy, and the clinical laboratory test, evaluation of symptoms and the like were performed. Clinical trial subjects took the clinical trial drug for up to 24 weeks and then entered into a safety follow-up (f/u) period, in which the f/u was performed (by phone or visit) in two weeks after the last administration.
(1) Endoscopic remission: No recurrence of erosion (LA grade A-D) observed through upper gastrointestinal endoscopy during a maintenance period (12 weeks)
(1) Rate of subjects without main symptoms (heartburn and gastric acid reflux)
Rate of subjects without main symptoms=(Subjects without main symptoms expressed/Number of clinical trial subjects whose symptoms were evaluated during a maintenance period after administration of the clinical trial drug)×100

In the next assay the test system is gastric pH. Briefly: 24-hour gastric pH monitoring after repeated oral dosing in healthy male volunteers (Example 1). The format is in vivo, human. As to conditions: for HTR > pH4 (%) Mean: time for which pH of gastric fluid exceeds and maintains 4 based on 24 hours: healthy male volunteers. How it is done: Tegoprazan and esomeprazole were orally administered for 7 days as shown in table 1 (an open-label, active controlled, parallel design and repeated dose).
There occurred neither serious adverse reactions nor dropouts caused thereby while this clinical trial was in progress. With regard to a gastric pH, a time for which the gastric pH exceeds 4 was evaluated during an observation period for the gastric pH.
After evaluating pharmacokinetic parameters, the time (%) for which a pH of gastric fluid exceeds and maintains 4 based on 24 hours is the same as shown in the following table 2.

Regarding `Cc1c(OCC(F)(F)F)ccnc1C[S+]([O-])c1nc2ccccc2[nH]1` (stereo not shown) [lansoprazole, reference compound], in assay [1] (12 weeks), the “subjects with erosion observed by upper gastrointestinal endoscopy” value is listed as “only one subject among the total 37 subjects”. The “symptom evaluation: symptoms of heartburn and gastric acid reflux while taking the drug” value in assay [1] was “had not experienced symptoms of heartburn and gastric acid reflux”.

Consider `Cc1nc2cc(C(=O)N(C)C)cc(O[C@H]3CCOc4cc(F)cc(F)c43)c2[nH]1` [tegoprazan, (S)-4-(5,7-difluorochroman-4-yloxy)-N,N,2-trimethyl-1H-benzo[d]imidazole-6-carboxamide], for which the “maintenance effect after four weeks of administration” value in assay [1] (25 mg once a day, 4 weeks) is recorded as “demonstrated a maintenance effect”. Besides, the “maintenance effect (endoscopic remission maintenance) after twelve weeks of administration” value in assay [1] (25 mg once a day, 12 weeks) was “A maintenance effect was observed”. In assay [1] (25 mg, conclusion from 12-week endoscopy), the “inhibition of the recurrence of gastroesophageal reflux disease” value is recorded as “effectively inhibits the recurrence of gastroesophageal reflux disease”. Moreover, the “subjects with erosion observed by upper gastrointestinal endoscopy” value in assay [1] (12 weeks) is listed as “only one subject among the total 37 subjects”. The “symptom evaluation: symptoms of heartburn and gastric acid reflux while taking the drug” value in assay [1] is “had not experienced symptoms of heartburn and gastric acid reflux”. The “HTR > pH4 (%) Mean: time for which pH of gastric fluid exceeds and maintains 4 based on 24 hours” value with gastric pH (Day 1, 25 mg once a day orally) is 40.6%; in the assay with gastric pH (Day 7, 25 mg once a day orally for seven days), 56.6%. For the same compound, the “average of time for which the gastric pH exceeds 4 (Time pH>4, %)” value in the assay on gastric pH (from day 1 after the administration, 25 mg, observed for 24 hours) is on record as “at least 40%”.
